Laboratory results taken from PubChem BioAssay AID2060341 (Molecular Pharmacology Branch, DTP, NCI, 2025).

Test system: 327498-153-R-J2-PDC multicell spheroid viability
Test: Anticancer human tumor 327498-153-R-J2-PDC patient-derived uterine carcinosarcoma cell line growth inhibition [IpAb]
Details: for IC50: curve of first compound; for viability, T/C: stronger effect = lower value
Procedure, shortened: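 Spheroids of 60% malignant cells, 25% HUVEC and 15% MSC were exposed to targeted agents combined with ipatasertib or abemaciclib. Doses started at or near clinical Cmax (10 microM when unknown) and fell in half-log steps.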

[1] = second compound 0.1 µM, first compound 0.0316 µM
[2] = second compound 0.1 µM, first compound 0.1 µM
[3] = second compound 0.1 µM, first compound 0.316 µM
[4] = second compound 0.1 µM, first compound 1 µM
[5] = second compound 0.1 µM, first compound 3.16 µM
[6] = second compound 0.1 µM, first compound 10 µM
[7] = second compound 0.316 µM, first compound 0.0316 µM
[8] = second compound 0.316 µM, first compound 0.1 µM
[9] = second compound 0.316 µM, first compound 0.316 µM
[10] = second compound 0.316 µM, first compound 1 µM
[11] = second compound 0.316 µM, first compound 3.16 µM
[12] = second compound 0.316 µM, first compound 10 µM
[13] = second compound 1 µM, first compound 0.0316 µM
[14] = second compound 1 µM, first compound 0.1 µM
[15] = second compound 1 µM, first compound 0.316 µM
[16] = second compound 1 µM, first compound 1 µM
[17] = second compound 1 µM, first compound 3.16 µM
[18] = second compound 1 µM, first compound 10 µM
[19] = second compound 3.16 µM, first compound 0.0316 µM
[20] = second compound 3.16 µM, first compound 0.1 µM
[21] = second compound 3.16 µM, first compound 0.316 µM
[22] = second compound 3.16 µM, first compound 1 µM
[23] = second compound 3.16 µM, first compound 3.16 µM
[24] = second compound 3.16 µM, first compound 10 µM
[25] = second compound 10 µM, first compound 0.0316 µM
[26] = second compound 10 µM, first compound 0.1 µM
[27] = second compound 10 µM, first compound 0.316 µM
[28] = second compound 10 µM, first compound 1 µM
[29] = second compound 10 µM, first compound 3.16 µM
[30] = second compound 10 µM, first compound 10 µM
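For viability, T/C in this document: 100% = DMSO vehicle control viability.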

C=CC(=O)N1CCN(c2nc(=O)n(-c3c(C)ccnc3C(C)C)c3nc(-c4c(O)cccc4F)c(F)cc23)C(C)C1 (stereo not given) + CC(C)NCC(C(=O)N1CCN(c2ncnc3c2C(C)CC3O)CC1)c1ccc(Cl)cc1
IC50 (second compound 0.1 µM): 219 nM
IC50 (second compound 0.316 µM): < 31.6 nM
IC50 (second compound 1 µM): < 31.6 nM
IC50 (second compound 3.16 µM): < 31.6 nM
IC50 (second compound 10 µM): < 31.6 nM
viability, T/C [1]: 66.7%
viability, T/C [2]: 55.7%
viability, T/C [3]: 45.3%
viability, T/C [4]: 46.4%
viability, T/C [5]: 43.8%
viability, T/C [6]: 40.8%
viability, T/C [7]: 46.2%
viability, T/C [8]: 36.6%
viability, T/C [9]: 36.8%
viability, T/C [10]: 30.3%
viability, T/C [11]: 30.5%
viability, T/C [12]: 29.1%
viability, T/C [13]: 37.3%
viability, T/C [14]: 25.6%
viability, T/C [15]: 22.4%
viability, T/C [16]: 22.4%
viability, T/C [17]: 21.1%
viability, T/C [18]: 18.9%
viability, T/C [19]: 28.9%
viability, T/C [20]: 19.3%
viability, T/C [21]: 15.7%
viability, T/C [22]: 16.6%
viability, T/C [23]: 15%
viability, T/C [24]: 15.7%
viability, T/C [25]: 15.2%
viability, T/C [26]: 14.2%
viability, T/C [27]: 14.5%
viability, T/C [28]: 13.3%
viability, T/C [29]: 12.1%
viability, T/C [30]: 11.4%

CC(C)(C)c1cnc(CSc2cnc(NC(=O)C3CCNCC3)s2)o1 + CC(C)NCC(C(=O)N1CCN(c2ncnc3c2C(C)CC3O)CC1)c1ccc(Cl)cc1
IC50 (second compound 0.1 µM): 131 nM
IC50 (second compound 0.316 µM): 109 nM
IC50 (second compound 1 µM): 45.4 nM
IC50 (second compound 3.16 µM): < 9.49 nM
IC50 (second compound 10 µM): < 9.49 nM
viability, T/C (second compound 0.1 µM, first compound 0.00949 µM): 101%
viability, T/C (second compound 0.1 µM, first compound 0.03 µM): 103%
viability, T/C (second compound 0.1 µM, first compound 0.0949 µM): 69.1%
viability, T/C (second compound 0.1 µM, first compound 0.3 µM): 1.04%
viability, T/C (second compound 0.1 µM, first compound 0.949 µM): 0.63%
viability, T/C (second compound 0.1 µM, first compound 3 µM): 0.58%
viability, T/C (second compound 0.316 µM, first compound 0.00949 µM): 80.3%
viability, T/C (second compound 0.316 µM, first compound 0.03 µM): 82.2%
viability, T/C (second compound 0.316 µM, first compound 0.0949 µM): 56.9%
viability, T/C (second compound 0.316 µM, first compound 0.3 µM): 0.5%
viability, T/C (second compound 0.316 µM, first compound 0.949 µM): 0.5%
viability, T/C (second compound 0.316 µM, first compound 3 µM): 0.49%
viability, T/C (second compound 1 µM, first compound 0.00949 µM): 56.2%
viability, T/C (second compound 1 µM, first compound 0.03 µM): 57.9%
viability, T/C (second compound 1 µM, first compound 0.0949 µM): 37.6%
viability, T/C (second compound 1 µM, first compound 0.3 µM): 0.39%
viability, T/C (second compound 1 µM, first compound 0.949 µM): 0.44%
viability, T/C (second compound 1 µM, first compound 3 µM): 0.45%
viability, T/C (second compound 3.16 µM, first compound 0.00949 µM): 48%
viability, T/C (second compound 3.16 µM, first compound 0.03 µM): 45.8%
viability, T/C (second compound 3.16 µM, first compound 0.0949 µM): 28.7%
viability, T/C (second compound 3.16 µM, first compound 0.3 µM): 0.18%
viability, T/C (second compound 3.16 µM, first compound 0.949 µM): 0.36%
viability, T/C (second compound 3.16 µM, first compound 3 µM): 0.34%
viability, T/C (second compound 10 µM, first compound 0.00949 µM): 36.6%
viability, T/C (second compound 10 µM, first compound 0.03 µM): 38%
viability, T/C (second compound 10 µM, first compound 0.0949 µM): 15.1%
viability, T/C (second compound 10 µM, first compound 0.3 µM): 0.21%
viability, T/C (second compound 10 µM, first compound 0.949 µM): 0.55%
viability, T/C (second compound 10 µM, first compound 3 µM): 0.37%

Cn1ncc(Cl)c1-c1cc(C(=O)NC(CN)Cc2cccc(F)c2)sc1Cl (stereo not given) + CC(C)NCC(C(=O)N1CCN(c2ncnc3c2C(C)CC3O)CC1)c1ccc(Cl)cc1
IC50 (second compound 0.1 µM): 1310 nM
IC50 (second compound 0.316 µM): 1640 nM
IC50 (second compound 1 µM): 1250 nM
IC50 (second compound 3.16 µM): 920 nM
IC50 (second compound 10 µM): < 31.6 nM
viability, T/C [1]: 98.5%
viability, T/C [2]: 86.4%
viability, T/C [3]: 70%
viability, T/C [4]: 53.9%
viability, T/C [5]: 38.1%
viability, T/C [6]: 0.27%
viability, T/C [7]: 77.7%
viability, T/C [8]: 77.5%
viability, T/C [9]: 63.2%
viability, T/C [10]: 60.1%
viability, T/C [11]: 40%
viability, T/C [12]: 0.3%
viability, T/C [13]: 63.4%
viability, T/C [14]: 55.8%
viability, T/C [15]: 55.3%
viability, T/C [16]: 52.9%
viability, T/C [17]: 39.8%
viability, T/C [18]: 0.31%
viability, T/C [19]: 50.5%
viability, T/C [20]: 56.8%
viability, T/C [21]: 50%
viability, T/C [22]: 49.5%
viability, T/C [23]: 39.2%
viability, T/C [24]: 0.3%
viability, T/C [25]: 35.5%
viability, T/C [26]: 45.2%
viability, T/C [27]: 41.7%
viability, T/C [28]: 35.8%
viability, T/C [29]: 35.6%
viability, T/C [30]: 0.42%

Cn1nccc1Nc1nccc(-c2ccn(C(CO)c3ccc(Cl)c(F)c3)c(=O)c2)n1 (stereo not given) + CC(C)NCC(C(=O)N1CCN(c2ncnc3c2C(C)CC3O)CC1)c1ccc(Cl)cc1
IC50 (second compound 0.1 µM): 3260 nM
IC50 (second compound 0.316 µM): 684 nM
IC50 (second compound 1 µM): < 31.6 nM
IC50 (second compound 3.16 µM): < 31.6 nM
IC50 (second compound 10 µM): < 31.6 nM
viability, T/C [1]: 87.2%
viability, T/C [2]: 77.7%
viability, T/C [3]: 71.4%
viability, T/C [4]: 71.7%
viability, T/C [5]: 47.9%
viability, T/C [6]: 28.4%
viability, T/C [7]: 68.3%
viability, T/C [8]: 59.6%
viability, T/C [9]: 49.1%
viability, T/C [10]: 51.7%
viability, T/C [11]: 40.9%
viability, T/C [12]: 22.5%
viability, T/C [13]: 49.2%
viability, T/C [14]: 42.4%
viability, T/C [15]: 33.8%
viability, T/C [16]: 38.2%
viability, T/C [17]: 30.5%
viability, T/C [18]: 11.9%
viability, T/C [19]: 33.9%
viability, T/C [20]: 30.4%
viability, T/C [21]: 28.1%
viability, T/C [22]: 27.7%
viability, T/C [23]: 20%
viability, T/C [24]: 9.15%
viability, T/C [25]: 28.5%
viability, T/C [26]: 21.5%
viability, T/C [27]: 18%
viability, T/C [28]: 17.3%
viability, T/C [29]: 15.8%
viability, T/C [30]: 4.13%

Cn1ncnc1[C@H]1c2n[nH]c(=O)c3cc(F)cc(c23)N[C@@H]1c1ccc(F)cc1 + CC(C)NCC(C(=O)N1CCN(c2ncnc3c2C(C)CC3O)CC1)c1ccc(Cl)cc1
IC50 (second compound 0.1 µM): 23.7 nM
IC50 (second compound 0.316 µM): 8.7 nM
IC50 (second compound 1 µM): 1.57 nM
IC50 (second compound 3.16 µM): 0.58 nM
IC50 (second compound 10 µM): < 0.316 nM
viability, T/C (second compound 0.1 µM, first compound 0.000316 µM): 94.7%
viability, T/C (second compound 0.1 µM, first compound 0.001 µM): 93.1%
viability, T/C (second compound 0.1 µM, first compound 0.00316 µM): 83.7%
viability, T/C (second compound 0.1 µM, first compound 0.01 µM): 69.7%
viability, T/C [1]: 43.1%
viability, T/C [2]: 25.1%
viability, T/C (second compound 0.316 µM, first compound 0.000316 µM): 74.5%
viability, T/C (second compound 0.316 µM, first compound 0.001 µM): 71.6%
viability, T/C (second compound 0.316 µM, first compound 0.00316 µM): 64%
viability, T/C (second compound 0.316 µM, first compound 0.01 µM): 47.8%
viability, T/C [7]: 31.1%
viability, T/C [8]: 20.6%
viability, T/C (second compound 1 µM, first compound 0.000316 µM): 60%
viability, T/C (second compound 1 µM, first compound 0.001 µM): 57.8%
viability, T/C (second compound 1 µM, first compound 0.00316 µM): 39.7%
viability, T/C (second compound 1 µM, first compound 0.01 µM): 36.6%
viability, T/C [13]: 25.8%
viability, T/C [14]: 14.7%
viability, T/C (second compound 3.16 µM, first compound 0.000316 µM): 48.7%
viability, T/C (second compound 3.16 µM, first compound 0.001 µM): 53.4%
viability, T/C (second compound 3.16 µM, first compound 0.00316 µM): 37.8%
viability, T/C (second compound 3.16 µM, first compound 0.01 µM): 26.7%
viability, T/C [19]: 21.1%
viability, T/C [20]: 12.8%
viability, T/C (second compound 10 µM, first compound 0.000316 µM): 39%
viability, T/C (second compound 10 µM, first compound 0.001 µM): 35.2%
viability, T/C (second compound 10 µM, first compound 0.00316 µM): 26.9%
viability, T/C (second compound 10 µM, first compound 0.01 µM): 20.7%
viability, T/C [25]: 14.8%
viability, T/C [26]: 10.4%
